Some test systems named below: DMS-114; DMS-273; M19-MEL; DLD-1; KM-20L2; LXFL 529; XF498; HOP-18; RXF 631.
Experiment in all cases: growth of human tumour cells (NCI), 48 h

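Five compound concentrations were applied to cells in 96-well plates for 48 hours; endpoints were derived by simple linear interpolation of the resulting dose-response curve. GI50 is the concentration that inhibits growth by half.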 Active and inactive are the calls of the source. No stated cut-off is given here; in the data, active = GI50 up to about 1.1 µM and inactive = higher.

With `Oc1cc(-c2ccccc2)nc2cc(Cl)ccc12`, the GI50 in the assay on DMS-114 is 0.383 µM (active); with DMS-273 it was 0.526 µM (active); in the assay with M19-MEL, 0.575 µM (active); in the assay on DLD-1, 0.384 µM (active); with KM-20L2, 1.52 µM (inactive); in the assay with LXFL 529, 0.805 µM (active). For the same compound, the GI50 was 0.304 µM (active) in the assay with XF498 and 11.2 µM (inactive) with HOP-18.

`O=C1CCC2(c3ccc(F)cc3)Nc3cc(Cl)ccc3N12` (stereo not given): the GI50 was 38.8 µM (inactive) in the assay on DMS-114; > 100 µM (inactive) in the assay with DMS-273; > 100 µM (inactive) in the assay with M19-MEL; > 100 µM (inactive) with DLD-1; > 100 µM (inactive) with KM-20L2; 65.5 µM (inactive) with LXFL 529. Further, the GI50 with XF498 was 20.1 µM (inactive); in the assay on HOP-18, 48.3 µM (inactive).

As to `O=C1OC(CCCl)(c2ccccc2)CC1CN1CCOCC1` (stereo not given), the GI50 in the assay with DMS-114 was 20.4 µM (inactive); in the assay on M19-MEL it was 22.1 µM (inactive); with DLD-1, 17.7 µM (inactive); in the assay on KM-20L2, 39.5 µM (inactive); with LXFL 529 it was 18.8 µM (inactive); in the assay with XF498, 14.6 µM (inactive).

For the compound `COC(=O)N/N=C(/CCN1CCCC1)CC(c1ccccc1)c1c(O)c2ccccc2oc1=O` (stereo not given), the GI50 in the assay with DMS-273 is > 100 µM (inactive); with M19-MEL, > 100 µM (inactive); in the assay with DLD-1, > 100 µM (inactive); with KM-20L2, > 100 µM (inactive); in the assay on LXFL 529, > 100 µM (inactive); in the assay on XF498, 38.7 µM (inactive). Besides, the GI50 in the assay with HOP-18 is > 100 µM (inactive).

As to `O=c1cc2n(c(=O)[nH]1)C1OC(C(O)C1O)[C@H]2CCO` (stereo not given in full), the GI50 in the assay with DMS-114, with DMS-273, in the assay with M19-MEL, in the assay with DLD-1, in the assay with KM-20L2 and in the assay on LXFL 529 was > 100 µM (inactive) throughout.

For `O=C(CC1(O)C(=O)Nc2c(Cl)ccc(Cl)c21)c1ccc(Cl)cc1Cl` (stereo not given), the GI50 is 19.3 µM (inactive) in the assay on DMS-114; 16.4 µM (inactive) in the assay on DMS-273; 7.16 µM (inactive) in the assay with M19-MEL; 28 µM (inactive) in the assay with DLD-1; 35.4 µM (inactive) in the assay with KM-20L2; 14.6 µM (inactive) in the assay on LXFL 529. The figures for the GI50 with XF498 and in the assay on HOP-18 were 19.8 µM (inactive) and 35.1 µM (inactive), respectively.

On to `O=C(/N=C(/Nc1ccccc1)SCCS/C(=N\C(=O)c1ccccc1)Nc1ccccc1)c1ccccc1`, for which the GI50 in the assay on DMS-114 is 35.7 µM (inactive); in the assay with DMS-273 it was 78.3 µM (inactive); with M19-MEL it was 63.5 µM (inactive); with DLD-1, 49.8 µM (inactive); in the assay with KM-20L2, 68.9 µM (inactive); in the assay with LXFL 529, 56.2 µM (inactive). Also, in the assay with XF498, the GI50 was 36.9 µM (inactive).

Regarding `CC(=O)NNc1ncc(C(=O)/C=C/c2ccccc2C)s1`, the GI50 in the assay on DMS-114, in the assay on RXF 631, in the assay on DMS-273, in the assay on M19-MEL, in the assay on DLD-1 and in the assay on KM-20L2 was > 100 µM (inactive) in each case. The GI50 in the assay with HOP-18 was > 100 µM (inactive).

As for `COC(=O)C1=CCS(=O)(=O)C1`, the GI50 in the assay with DMS-114, in the assay with RXF 631, in the assay with M19-MEL, in the assay on DLD-1, in the assay on KM-20L2 and in the assay on LXFL 529 was > 100 µM (inactive) each time. Besides, the GI50 in the assay on XF498 and with HOP-18 was > 100 µM (inactive) throughout.

As for `O=C(c1ccccc1)[C@H]1Nc2ccc(Cl)cc2[C@H]2c3ccccc3O[C@H]21`, the GI50 was 15.8 µM (inactive) with DMS-114; 18.7 µM (inactive) in the assay with DMS-273; 19.1 µM (inactive) with M19-MEL; 14 µM (inactive) in the assay with DLD-1; 14.9 µM (inactive) in the assay on KM-20L2; 15 µM (inactive) with LXFL 529. Moreover, the GI50 is 14.7 µM (inactive) in the assay on XF498 and 11.7 µM (inactive) in the assay with HOP-18.

Take `Nc1cccc2c1-c1c(cccc1[N+](=O)[O-])C2=O`: the GI50 in the assay on DMS-114, with DMS-273, in the assay on M19-MEL, in the assay with DLD-1, in the assay with KM-20L2 and in the assay with HOP-18 was > 100 µM (inactive) in each case.

For the compound `CC(=O)O[C@H]1CC2C=CC3C(CCC31)O2` (stereo not given in full), the GI50 with DMS-114, in the assay with DMS-273, with M19-MEL, in the assay with DLD-1, with KM-20L2 and in the assay on LXFL 529 was > 100 µM (inactive) throughout. Also, the GI50 with XF498 and in the assay with HOP-18 was > 100 µM (inactive) in each case.

As for `CC(C)/C=C1\CCC(CN2CCCC2)C1=O` (stereo not given), the GI50 with DMS-114 is 12.9 µM (inactive); with M19-MEL it was 24.1 µM (inactive); in the assay on DLD-1 it was 3.88 µM (inactive); with KM-20L2 it was 18.5 µM (inactive); in the assay with LXFL 529, 3.03 µM (inactive); in the assay on XF498 it was 16.6 µM (inactive). In the assay on HOP-18, the GI50 is 7.73 µM (inactive).

As to `O=C1NC2(CCCC2)/C(=N\O)C12CCCC2`, the GI50 with DMS-114, in the assay on DMS-273, in the assay on M19-MEL, in the assay on DLD-1, in the assay with LXFL 529 and with XF498 was > 100 µM (inactive) each time. In addition, the GI50 with HOP-18 was > 100 µM (inactive).

Consider `COc1cccc(/C=N/C23CC4CC(CC(C4)C2)C3)c1`, for which the GI50 in the assay on DMS-273, with M19-MEL and in the assay on KM-20L2 was > 100 µM (inactive) in each case.

For the compound `COc1ccc(C2(CN(C)C)COc3cc(OC)c(OC)cc3C2=O)cc1OC` (stereo not given), the GI50 in the assay on DMS-114 was 23.6 µM (inactive); with RXF 631, 75.7 µM (inactive); in the assay on M19-MEL it was 66.8 µM (inactive); in the assay on DLD-1, 20.1 µM (inactive); with KM-20L2, > 100 µM (inactive); with LXFL 529, 20.1 µM (inactive). Moreover, the values for the GI50 in the assay with XF498 and with HOP-18 were 30.1 µM (inactive) and > 100 µM (inactive), respectively.

With `CCOc1cn(C2OC(CO)C(O)C2O)c(=O)[nH]c1=O` (stereo not given), the GI50 is > 100 µM (inactive) in the assay with DMS-114; > 100 µM (inactive) in the assay with DMS-273; > 100 µM (inactive) in the assay on M19-MEL; 90.2 µM (inactive) in the assay on DLD-1; > 100 µM (inactive) in the assay on KM-20L2; > 100 µM (inactive) in the assay on LXFL 529. Also, in the assay with HOP-18, the GI50 was > 100 µM (inactive).

As for `CCCCC1(C(NC(=O)c2ccccc2Cl)c2ccncc2)C(=O)N(c2ccccc2)N(c2ccccc2)C1=O` (stereo not given), the GI50 in the assay with DMS-114 was 41.4 µM (inactive); in the assay with DMS-273, 27 µM (inactive); in the assay with M19-MEL it was 47.5 µM (inactive); in the assay on DLD-1, 39.7 µM (inactive); in the assay on KM-20L2 it was 59.7 µM (inactive); with LXFL 529, 36.2 µM (inactive). Moreover, the GI50 was 35.9 µM (inactive) in the assay on XF498 and > 100 µM (inactive) with HOP-18.

In the case of `Cc1cc2c(CC(=O)O)n[nH]c2c(C(=O)O)c1C`, the GI50 in the assay on RXF 631, in the assay with DMS-273, in the assay with M19-MEL, with DLD-1, in the assay with KM-20L2 and with LXFL 529 was > 100 µM (inactive) throughout. Besides, the GI50 in the assay with XF498 and in the assay on HOP-18 was > 100 µM (inactive) throughout.

As to `CCCCCCCCc1cc2c(O)c(c1)Cc1cc(CCCCCCCC)cc(c1O)Cc1cc(CCCCCCCC)cc(c1O)Cc1cc(CCCCCCCC)cc(c1O)Cc1cc(CCCCCCCC)cc(c1O)Cc1cc(CCCCCCCC)cc(c1O)C2`, the GI50 with DMS-114, with RXF 631, in the assay with DLD-1, with KM-20L2, in the assay on LXFL 529 and in the assay on XF498 was > 100 µM (inactive) throughout. Besides, the GI50 in the assay with HOP-18 was > 100 µM (inactive).

On to `CC(C)C1C(=O)NC(CO)Cc2c[nH]c3c(C(c4c[nH]c5ccccc45)C(O)CO)ccc(c23)N1C` (stereo not given), for which the GI50 in the assay with DMS-273 was > 100 µM (inactive); in the assay on M19-MEL it was > 100 µM (inactive); in the assay on DLD-1, > 100 µM (inactive); in the assay with LXFL 529 it was 96.4 µM (inactive); in the assay on XF498, 20 µM (inactive); in the assay on HOP-18, 5.56 µM (inactive).

For `O=c1/c(=C/c2ccc(Cl)cc2Cl)sc2nc3ccccc3n12`, the GI50 in the assay with DMS-114, in the assay on RXF 631, in the assay with DMS-273, in the assay with M19-MEL, in the assay with DLD-1 and with KM-20L2 was > 100 µM (inactive) in each case. The GI50 in the assay on LXFL 529, in the assay on XF498 and in the assay with HOP-18 was > 100 µM (inactive) throughout.

Regarding `CCc1cccc(C)c1NC(=O)CCc1nnc(SC)o1`, the GI50 with DMS-114, with DMS-273, with M19-MEL, with DLD-1, in the assay with KM-20L2 and in the assay on LXFL 529 was > 100 µM (inactive) in each case. In addition, the GI50 in the assay on XF498 and in the assay on HOP-18 was > 100 µM (inactive) each time.

Turning to `CO[C@H]1CC[C@]2(C)C3=CC[C@@]4(C)C(CC[C@@H]4C(C)CC[C@@H](C)C(C)C)C(=CCC2C1)O3` (stereo not given in full), the GI50 with DMS-114, in the assay with DMS-273, in the assay with M19-MEL, in the assay with DLD-1, in the assay with KM-20L2 and in the assay on LXFL 529 was > 25 µM (inactive) each time. Also, the GI50 in the assay with XF498 and with HOP-18 was > 25 µM (inactive) throughout.

Turning to `COC1=CC(=O)C2C(C1=O)C(c1ccccc1)[C@H]2C` (stereo not given in full), the GI50 with DMS-273 is > 100 µM (inactive); with DLD-1 it was > 10 µM (inactive); with LXFL 529, 37.2 µM (inactive); in the assay with XF498, 22.3 µM (inactive).

On to `O=C1Sc2ccccc2C(=O)N2CSCC12` (stereo not given), for which the GI50 in the assay on DMS-114, with DMS-273, with M19-MEL, with DLD-1, in the assay on KM-20L2 and in the assay on LXFL 529 was > 100 µM (inactive) each time. Besides, the GI50 with XF498 and in the assay on HOP-18 was > 100 µM (inactive) throughout.
